Source: US20190216712A1, “Hair dye composition, preparation method, and application method thereof” (SHANGHAI CLINICAL ENGINE TECHNOLOGY DEVELOPMENT CO., LTD., priority 2017, published 2019)
Like-named read-outs stand apart in the source and are kept apart here.

System: human epithelial-derived cells (293T)
Assay: CCK-8 test of killing ability to cells (Embodiment 14)
Assay type: cell-based
Protocol: According to embodiments 1-3, water-soluble pigment solubilizing carrier dye was prepared, while cationic carrier ([…]) was used. First, human epithelial-derived cells (293T) were cultured, which was divided into three groups corresponding to a polyethyleneimine-co-isopropylacrylamide (water-soluble pigment solubilizing carrier) group, a polyethyleneimine-co-isopropylacrylamide (a water-soluble pigment solubilizing carrier) dye, and a commercially available cationic carrier group; the cells were cultured with commercially available cell culture medium ([…]) for 24 hours to obtain cells in the logarithmic growth phase; at this time, the same concentration gradient of polyethyleneimine-co-isopropylacrylamide (water-soluble pigment solubilizing carrier), polyethyleneimine-co-isopropylacrylamide (a water-soluble pigment solubilizing carrier)-pigment, and commercially available cationic carrier were added to the culture dishes of the three groups of cells; after 24 hours of culture, the CCK-8 test kit was used to examine the killing ability of the three groups of systems to the cells.

| Molecule | damage of cells (293T cells, concentration gradient, 24 hours of culture) | damage of cells |
| --- | --- | --- |
| CCCCCCCCCCCCOS(=O)(=O)[O-].[Na+] [commercially available cationic carrier, sodium lauryl sulfate] | cell death was rapid |  |
| polyethyleneimine-co-isopropylacrylamide |  | hardly damaged |
